US11959100B2, “Method for culture of cells” (Kyoto University, priority 2017, dated 2024)
One block for each molecule: values may come before it.

Assays:
GSK3β = GSK3β (Homo sapiens, UniProt P49841); assay: GSK3β inhibitory activity, CellSensor LEF/TCF-bla HCT-116 reporter assay; assay type: cell-based
Description: In the Wnt/β-catenin pathway, GSK3β functions to phosphorylate β-catenin in the absence of Wnt-ligand. The phosphorylated β-catenin is ubiquitinated and degraded within the proteasome. Therefore, gene expression downstream of the Wnt-β-catenin pathway is suppressed. If GSK3β in this pathway is inhibited, β-catenin is translocated into the nucleus, without being degraded, to induce gene expression downstream of the Wnt-β-catenin pathway together with other transcription factors such as T-cell factor (TCF)/lymphoid enhancer factor (LEF). CellSensor LEF/TCF-bla HCT-116 Cell Line (Thermo Fisher Scientific Inc., K1676) stably incorporates therein LEF/TCF and incorporates a reporter gene (beta-lactamase reporter gene) so as to express the reporter gene under the control of LEF/TCF. The expression of the reporter gene in this cell line in the absence of the Wnt-ligand serves as an index for the inhibition of the function (β-catenin phosphorylation function) of GSK3β. The GSK3β inhibitory activity of the GSK3β inhibitor was measured by assay using this cell line.
The assay was conducted in accordance with the protocol of Invitrogen Corp. (CellSensor® LEF/TCF-bla HCT 116 Cell-based Assay Protocol).
Specifically, LEF/TCF-bla HCT-116 Cells were suspended in an assay medium (OPTI-MEM, 0.5% dialyzed FBS, 0.1 mM NEAA, 1 mM sodium pyruvate, 100 U/mL/100 μg/mL Pen/Strep) (312,500 cells/mL). The cell suspension was inoculated to each well of an assay plate (10,000 cells/well), and cultured for 16 to 24 hours.
A beta-lactamase substrate solution (LiveBLAzer-FRET B/G (CCF4-AM) Substrate Mixture) was added to each well (8 μL/well) and incubated for 2 hours. A fluorescence value was measured in a fluorescence plate reader. The measurement was performed in two wells per each concentration condition.

[1] = test system: neural crest cells (NCCs); assay: Expansion (suspension) culture of neural crest cells: total cell number / rate of cell proliferation; assay type: cell-based, Human; settings: for influence of concentration on change in total cell number: bFGF and EGF 20 or 40 ng/ml, CHIR99021 1, 2, 3, 3.5, 4, 4.5 or 5 μM
Description: (§1) Human iPSCs were allowed to differentiate into neural crest cells (NCCs) according to the method described in Non Patent Literature 1. The iPSCs used were SOX10-Nano-Lantern Reporter Human iPSCs (201B7 line) described in Non Patent Literature 4. This cell line has an insert of a nucleotide sequence encoding a fluorescent protein Nano-Lantern (Saito K. et al., “Luminescent proteins for high-speed single-cell and whole-body imaging.” Nat. Commun., 2012; 3: 1262) downstream of SOX10 gene, a marker gene of NCCs, and expresses a fusion protein of SOX10 and Nano-Lantern under the control of SOX10 promoter.
(§2) iPSCs were inoculated to a Matrigel-coated dish, adherent-cultured for 4 days in TeSR1 medium, and then adherent-cultured for 10 days in CDM medium containing 10 μM SB431542 (TGFβ inhibitor) and 1 μM CHIR99021 (GSK3β inhibitor), and thereby allowed to differentiate into NCCs.
NCCs were detached from the dish and suspension-cultured in CDM medium containing 10 μM SB431542, 3 μM CHIR99021, 40 ng/ml bFGF and 40 ng/ml EGF. The cells were passaged every 7 days.
(§3) Change in total cell number after the start of expansion culture is shown in FIG. 1, and change in the percentage of SOX10 expression-positive cells is shown in FIG. 2. In order to measure the percentage of SOX10 expression-positive cells, an aggregated cell mass was dissociated using StemPro Accutase Cell Dissociation Reagent (Invitrogen Corp.) to prepare single-cell suspensions. The single-cell suspensions in FACS buffer (2% BSA HBSS) supplemented with 1 μg/mL PI (propidium iodide, Wako Pure Chemical Industries, Ltd.) were filtered through a tube with 35 μm nylon mesh (BD Falcon) and then analyzed using a flow cytometer (FACS Aria, BD Biosciences) to measure the ratio of GFP-positive cells in live cells (PI-negative cells). […] The expressed SOX10 serves as a marker of NCCs having multipotency.

[2] = test system: neural crest cells (NCCs); assay: Expansion (suspension) culture of neural crest cells: percentage of SOX10 expression-positive cells by flow cytometry; assay type: cell-based, Human; settings: for influence of concentration on change in the percentage of SOX10 expression-positive cells: bFGF and EGF 20 or 40 ng/ml
Description: as §1, §2
[…] The cells were passaged every 7 days.
as §3

neural crest cells [3] = settings: 1 μM CHIR99021; culture for 7 days; suspension culture; cited from earlier work
neural crest cells [4] = settings: bFGF 0 pg/ml to 10 ng/ml; adherent culture; cited from earlier work
[5] = bFGF 10, 12.5, 15.0 or 17.5 ng/ml, CHIR99021 1.5 μM

Chain of GSK3β (P49841 whole entry): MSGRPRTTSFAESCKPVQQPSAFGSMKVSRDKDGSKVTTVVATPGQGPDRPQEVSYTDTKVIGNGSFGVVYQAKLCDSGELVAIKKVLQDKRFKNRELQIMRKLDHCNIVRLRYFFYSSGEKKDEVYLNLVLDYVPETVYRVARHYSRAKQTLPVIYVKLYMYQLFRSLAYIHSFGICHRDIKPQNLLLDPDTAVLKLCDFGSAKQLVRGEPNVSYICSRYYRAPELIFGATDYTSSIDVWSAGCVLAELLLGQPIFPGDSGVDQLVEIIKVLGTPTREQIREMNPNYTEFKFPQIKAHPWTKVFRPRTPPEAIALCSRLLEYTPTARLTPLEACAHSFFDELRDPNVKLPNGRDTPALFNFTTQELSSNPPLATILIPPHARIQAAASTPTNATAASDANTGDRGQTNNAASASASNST

Fluorescence value Well 1 (GSK3β; 0.316 nM): 6
Fluorescence value Well 2 (GSK3β; 0.316 nM): 0
Fluorescence value Well 1 (GSK3β; 1.00 nM): 0
Fluorescence value Well 2 (GSK3β; 1.00 nM): 0
Fluorescence value Well 1 (GSK3β; 3.16 nM): 0
Fluorescence value Well 2 (GSK3β; 3.16 nM): 14
Fluorescence value Well 1 (GSK3β; 10.0 nM): 12
Fluorescence value Well 2 (GSK3β; 10.0 nM): 23
Fluorescence value Well 1 (GSK3β; 31.6 nM): 21
Fluorescence value Well 2 (GSK3β; 31.6 nM): 45
Fluorescence value Well 1 (GSK3β; 100 nM): 75
Fluorescence value Well 2 (GSK3β; 100 nM): 60
Fluorescence value Well 1 (GSK3β; 316 nM): 101
Fluorescence value Well 2 (GSK3β; 316 nM): 96
GSK3β inhibitory activity in terms of the fluorescence value (mean from the two wells) (GSK3β; 1 μM): 113.5
Fluorescence value Well 1 (GSK3β; 1000 nM): 114
Fluorescence value Well 2 (GSK3β; 1000 nM): 113
Fluorescence value Well 1 (GSK3β; 3160 nM): 99
Fluorescence value Well 2 (GSK3β; 3160 nM): 136
Fluorescence value Well 1 (GSK3β; 10000 nM): 88
Fluorescence value Well 2 (GSK3β; 10000 nM): 73
Molecule: Cc1c[nH]c(-c2cnc(NCCNc3ccc(C#N)cn3)nc2-c2ccc(Cl)cc2Cl)n1 [CHIR99021, 6-[[2-[[4-(2,4-dichlorophenyl)-5-(4-methyl-1H-imidazol-2-yl)-2-pyrimidinyl]amino]ethyl]amino]nicotinonitrile]
change in total cell number after the start of expansion culture ([1]; 3 μM CHIR99021, 10 μM SB431542, 40 ng/ml bFGF, 40 ng/ml EGF, whole culture period): increased over the whole period
influence of concentration on change in total cell number [1]: no influence
percentage of SOX10 expression-positive cells ([2]; 3 μM CHIR99021, 10 μM SB431542, 40 ng/ml bFGF, 40 ng/ml EGF, on 121 days of culture): high percentage of SOX10 expression-positive cells was confirmed
time of culture at which the number of cells that maintained multipotency decreased ([2]; CHIR99021 1 μM): 21 days
percentage of SOX10 expression-positive cells ([2]; CHIR99021 1 μM, on 21 days of culture): decrease in the percentage of SOX10 expression-positive cells was observed
percentage of SOX10 expression-positive cells ([2]; CHIR99021 1 μM, on 63 days of culture): ≤ 25%
period over which multipotency was maintained ([2]; CHIR99021 2 μM): ≥ 63 days
percentage of SOX10 expression-positive cells ([2]; CHIR99021 2 μM, on 63 days of culture): ≥ 55%
time of culture at which the number of cells that maintained multipotency decreased ([2]; CHIR99021 5 μM): 42 days
percentage of SOX10 expression-positive cells ([2]; CHIR99021 5 μM, on 63 days of culture): ≤ 5%
percentage of SOX10 expression-positive cells ([2]; CHIR99021 5 μM, up to 42 days of culture): ≥ 55%
period of culture and proliferation of neural crest cells that maintained multipotency ([2]; CHIR99021 3 to 4.5 μM): ≥ 112 days
percentage of SOX10 expression-positive cells ([2]; CHIR99021 3 to 4.5 μM, on 121 days of culture): ≥ 90%
presence of Sox10-positive cells (neural crest cells [3]): presence of Sox10-positive cells was confirmed

Molecule: Cn1cc(C2=C(c3cccc(N)c3)C(=O)NC2=O)c2ccccc21 [CP21R7, 3-(3-amino-phenyl)-4-(1-methyl-1H-indol-3-yl)-pyrrole-2,5-dione]
time of culture at which the number of cells that maintained multipotency decreased ([2]; CP21R7 0.1 μM): 21 days
percentage of SOX10 expression-positive cells ([2]; CP21R7 0.1 μM, on 21 days of culture): started to decrease
percentage of SOX10 expression-positive cells ([2]; CP21R7 0.5 or 1 μM, on 84 days of culture): high percentage of SOX10 expression-positive cells was confirmed
period of culture and proliferation of neural crest cells that maintained multipotency ([2]; CP21R7 0.5 to 1 μM): ≥ 84 days

Molecule: EGF: epidermal growth factor, medium additive
influence of concentration on change in total cell number [1]: no influence
influence of concentration on change in the percentage of SOX10 expression-positive cells [2]: no influence

Molecule: bFGF: basic fibroblast growth factor (bFGF (also referred to as FGF2)), medium additive
behavior of change in total cell number [1, 5]: substantially the same
influence of concentration on change in total cell number [1]: no influence
influence of bFGF concentration on the percentage of SOX10 expression positivity [2, 5]: no influence
influence of concentration on change in the percentage of SOX10 expression-positive cells [2]: no influence
number and ratio of neural crest cells in a cultured cell population (neural crest cells [4]): decreased in a concentration-dependent manner
